Assay results from US20120035855A1, “METHOD OF NETWORK-BASED IDENTIFICATION FOR DRUG ACTION AND/OR SYNERGY EFFECT OF MEDICINE COMBINATION” (TSINGHUA UNIVERSITY, priority 2008, published 2012).

Each compound was assayed on Human Umbilical Vein Endothelial Cells (HUVECs) (assay: Cell scratch experiment, inhibition of endothelial cell migration). Conditions: single medicine; 9 h intervention; FIG. 4.
Format: cell-based
Parameters: Ranking by experiment results: dose or concentration left out as unconfirmed
From the text: Experiment: cell scratch experiments were used to quantitively measure the inhibition of medicines on migration. […] Sterile operation had to be ensured during cell scrapping process. Human Umbilical Vein Endothelial Cells (HUVECs) available from Cascade Biologics (Portland, USA) were repeatably cultured with the supplier's criterions; Matrine, quercetin, emodin, evodiamine, genistein, and aconitine were purchased from National Institute for the Control of Pharmaceutical and Biological Products, and their experimental density were set at 10 mM as indicated by literature. HUVECs were cultured on 12-plate coated by 0.1% gelatin, the cells were inactivated after 2 hours under the conditions of 5% CO2, 37° C. and 10 ug/ml of Mitonycin C. Cell scraper about 1 mm in width was used to scrap on the fused surface of single-layer of cells. Standard endothelial cell growth medium (ECGM) free of medicine application was taken as control group. Pictures were taken at 6 h−10 h of medicine intervention by Nikon digital camera, with migration distance being scaled by configure software. The experiment was repeated five times. The […] ability of the medicines was measured by Migration Inhibition Rate, determined as:
Migration Inhibition Rate=(migration distance of control group−migration distance of experimental group)/migration distance of control group

| Compound | inhibition on endothelial cell migration (in words) |
| --- | --- |
| O=C1CCC[C@@H]2[C@H]3CCCN4CCC[C@@H](CN12)[C@@H]34 [Matrine] | strongest inhibition |

Same assay, conditions: single medicine; rank of migration inhibition among six medicines; 9 h

| Compound | Ranking by experiment results |
| --- | --- |
| CCN1C[C@]2(COC)[C@H](O)C[C@H](OC)[C@@]34[C@@H]5C[C@@]6(O)[C@H](OC(=O)c7ccccc7)[C@@H]5[C@@](OC(C)=O)([C@@H]([C@H](OC)[C@H]23)[C@@H]14)[C@@H](O)[C@@H]6OC [Aconitine] | 6 |
| Cc1cc(O)c2c(c1)C(=O)c1cc(O)cc(O)c1C2=O [Emodin] | 3 |
| O=c1c(-c2ccc(O)cc2)coc2cc(O)cc(O)c12 [Genistein] | 5 |
| O=C1CCC[C@@H]2[C@H]3CCCN4CCC[C@@H](CN12)[C@@H]34 [Matrine] | 1 |
| O=c1c(O)c(-c2ccc(O)c(O)c2)oc2cc(O)cc(O)c12 [Quercetin] | 2 |
| Evodiamine | 4 |
